Results taken from patent US4835160A, “Derivatives of pyridoindole, having anti-tumor properties” (Sanofi, priority 1986, dated 1989).

Assays:
[1] = system: leukemia tumour line L 1210; test: In vitro cytotoxic activity on leukemia tumour line L 1210; type: cell-based; conditions: L 1210, 48 hours contact, 37° C.; read-out: I D 50 (concentration which inhibits the proliferation of the cells by 50%)
How it was run: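 Exponentially growing L 1210 leukemia cells were exposed to increasing compound concentrations at 37 °C under CO2 and counted every 24 h. ID50, the concentration inhibiting proliferation by 50%, was calculated after 48 h contact.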

leukemia P 388 [2] = test: Test of leukemia P 388; IP/IP, D1-5; type: in vivo, CDF1 hybrid mice; conditions: D1-D5; for Number of survivors: day D30; for T/C %: survival time
How it was run: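 CDF1 hybrid mice received 10^6 P 388 cells intraperitoneally, then compound in distilled water by intraperitoneal route daily D1-D5, 10 mice per group, 5-fluorouracil as positive control. Activity judged as T/C survival time versus untreated controls, survivors counted at D30; T/C ≤85% or day 5 minus day 1 weight change ≤ −4 g counted as toxic.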

leukemia P388 = test: Test for leukemia P388, IP/IP, D1; type: in vivo, CDF1 hybrid mice; conditions: for Number of survivors: day D30; for T/C %: survival time
Experimental: (§1) The antitumour activity was tested in vivo on various tumours inoculated in various ways according to the following general protocol:
(§2) All the male or female mice are inoculated on day D0 with a known quantity of viable tumour cells for ascitic tumours or with a known tumour fragment for solid tumours.
(§3) They are then distributed into various groups. Each group, corresponding to the animals treated by the product under test, is made up of 10 mice. The product under test is dissolved in distilled water and it is administered n times (Dx-Dy), n, y, and x varying according to the protocol chosen, at the rate of 0.1 ml of solution per 10 g by weight of mice treated and at specific doses for each protocol.
(§4) The "negative control" group, corresponding to the animals which are not treated by the product, contains 2√N animals, N being equal to or greater than the total number of mice treated by the product in the same experiment.
(§5) Finally, the tests can also be carried out at the same time as the study of a group called "positive control", of ten animals, which is treated by a molecule, known for its antitumour activity and which can vary according to the protocol chosen, in the same conditions as the groups treated by the product under test.
(§6) The antitumour activity is evaluated, in the case of ascitic tumours, by considering the increase in the survival time of the animals treated in comparison to that of the animals in the "negative control" group, according to the formula: [formula]
(§7) Also, a product is considered as toxic at the dose studied when this T/C value is equal to or less than 85%. In addition, a product is also considered as toxic at the dose studied when the weight variation, expressed in grams and calculated by the formula: […]
(§8) The tests are carried out with CDF1 hybrid mice inoculated by intraperitoneal route with 10^6 leukemia cells from the P 388 line. The compound under test is administered for 5 successive days (D1-D5) by intraperitoneal route. The positive control for the test is 5-fluorouracile which is administered in the same conditions. The number of surviving animals is evaluated on day D30.
(b) Test for Leukemia P388, IP/IP, D1 (GERAN et al. Cancer chemother., 1972, 2, 07-57).
The test is carried out according to the preceding protocol, the compound under test being administered only on day D1.

leukemia P 388 [3] = test: Test for leukemia P 388 IP/D1 IV; type: in vivo, CDF1 hybrid mice; conditions: for Number of survivors: day D30; for T/C %: survival time
Experimental: as §1, §2, §3, §4, §5, §6, §7, §8
(f) Test for leukemia P 388 IP/D1 IV (GERAN et al., Cancer Chemother., 1972, 2, 07-57).
The test is carried out according to the same protocol as that described for test (a), the compound under test being administered by intravenous route only on day D1.

colic adenocarcinoma 38 [4] = test: Test for colic adenocarcinoma 38, SC/D1 IV; type: in vivo, BDF1 hybrid mice; conditions: 100 mg/kg IV
Experimental: as §1, §2, §3, §4
(§9) the antitumour activity is evaluated, in the case of solid tumours, by considering the reduction in the average tumour volume of the treated animals in comparison with the animals of the "negative control" group, according to the formula: [formula]
(§10) A value for T/C of less than 42% indicates an activity for the product at the studied dose.
(h) Test for colic adenocarcinoma 38, SC/D1 IV. (GERAN et al., Cancer Chemother., 1972, 2, 07-57).
(§11) The tests are carried out with BDF1 hybrid mice inoculated by subcutaneous route with a standardized tumour fragment of 3 mm^3. The compound under test is administered by intravenous route only on day D1.
The number of surviving animals is evaluated on day D38.

colic adenocarcinoma 38 [5] = test: Test for colic adenocarcinoma 38, SC/D2,9 IV; type: in vivo, BDF1 hybrid mice; parameters: Average tumour volume at D32: unit not given beside the values; conditions: D2 and D9; for Number of survivors: day D32; for T/C % at D32: tumour volume
Experimental: as §1, §2, §3, §4, §9, §10, §11
(i) Test for colic adenocarcinoma 38, SC/D2,9 IV (GERAN et al., Cancer Chemother., 1972, 2, 07-57).
This test is carried out according to the protocol described for test (h), the compound under test being administered by intravenous route on day D2 then on day D9.
The number of surviving animals is evaluated on day D32.

CCN(CC)CCCNc1ncc(C)c2c1c1cc(O)ccc1n2C [Derivative No. 12, 1-(3-diethylaminopropylamino)-4,5-dimethyl-8-hydroxy-5H-pyrido[4,3-b]indole]
IC50 [1]: 0.035 µM
Median day of survival (leukemia P 388 [2]; 1.25 mg/kg IP): 16.7 days
Variation by weight (leukemia P 388 [2]; 1.25 mg/kg IP): -0.5 g
Number of survivors (leukemia P 388 [2]; 1.25 mg/kg IP): 1/10
T/C % (leukemia P 388 [2]; 1.25 mg/kg IP): 152%
Median day of survival (leukemia P 388 [2]; 2.5 mg/kg IP): 18.0 days
Variation by weight (leukemia P 388 [2]; 2.5 mg/kg IP): -1.2 g
Number of survivors (leukemia P 388 [2]; 2.5 mg/kg IP): 0/10
T/C % (leukemia P 388 [2]; 2.5 mg/kg IP): 164%
Median day of survival (leukemia P 388 [2]; 5 mg/kg IP): 19.00 days
Variation by weight (leukemia P 388 [2]; 5 mg/kg IP): -1.9 g
Number of survivors (leukemia P 388 [2]; 5 mg/kg IP): 2/10
T/C % (leukemia P 388 [2]; 5 mg/kg IP): 173%
Median day of survival (leukemia P 388 [2]; 10 mg/kg IP): 19.3 days
Number of survivors (leukemia P 388 [2]; 10 mg/kg IP): 0/10
T/C % (leukemia P 388 [2]; 10 mg/kg IP): 176%
Median day of survival (leukemia P 388 [2]; 20 mg/kg IP): 9.7 days
Variation by weight (leukemia P 388 [2]; 20 mg/kg IP): -5.9 g
Number of survivors (leukemia P 388 [2]; 20 mg/kg IP): 0/10
T/C % (leukemia P 388 [2]; 20 mg/kg IP): 88%
Median day of survival (leukemia P388; 5 mg/kg IP): 15.87 days
Variation by weight (g) (leukemia P388; 5 mg/kg IP): +0.1 g
Number of survivors (leukemia P388; 5 mg/kg IP): 0/10
T/C % (leukemia P388; 5 mg/kg IP): 139%
Median day of survival (leukemia P388; 10 mg/kg IP): 17.75 days
Variation by weight (leukemia P388; 10 mg/kg IP): -0.6 g
Number of survivors (leukemia P388; 10 mg/kg IP): 0/10
T/C % (leukemia P388; 10 mg/kg IP): 156%
Median day of survival (leukemia P388; 20 mg/kg IP): 20.75 days
Variation by weight (leukemia P388; 20 mg/kg IP): -1.2 g
Number of survivors (leukemia P388; 20 mg/kg IP): 0/10
T/C % (leukemia P388; 20 mg/kg IP): 182%
Median day of survival (leukemia P388; 40 mg/kg IP): 23.0 days
Variation by weight (leukemia P388; 40 mg/kg IP): -6.2 g
Number of survivors (leukemia P388; 40 mg/kg IP): 1/10
T/C % (leukemia P388; 40 mg/kg IP): 202%
Median day of survival (leukemia P 388 [3]; 50 mg/kg IV): 19.0 days
Variation by weight (leukemia P 388 [3]; 50 mg/kg IV): -0.7 g
Number of survivors (leukemia P 388 [3]; 50 mg/kg IV): 0/10
T/C % (leukemia P 388 [3]; 50 mg/kg IV): 174%
Median day of survival (leukemia P 388 [3]; 100 mg/kg IV): 24.3 days
Variation by weight (leukemia P 388 [3]; 100 mg/kg IV): -1.6 g
Number of survivors (leukemia P 388 [3]; 100 mg/kg IV): 1/10
T/C % (leukemia P 388 [3]; 100 mg/kg IV): 223%
Average tumour volume at D38 (colic adenocarcinoma 38 [4]): 3.24
Number of survivors (colic adenocarcinoma 38 [4]; day D38): 10/10
T/C % at D38 (colic adenocarcinoma 38 [4]; tumour volume): 36%
Average tumour volume at D32 (colic adenocarcinoma 38 [5]; 50 mg/kg IV): 1.38
Number of survivors (colic adenocarcinoma 38 [5]; 50 mg/kg IV): 10/10
T/C % at D32 (colic adenocarcinoma 38 [5]; 50 mg/kg IV): 18%
Average tumour volume at D32 (colic adenocarcinoma 38 [5]; 75 mg/kg IV): 0.97
Number of survivors (colic adenocarcinoma 38 [5]; 75 mg/kg IV): 10/10
T/C % at D32 (colic adenocarcinoma 38 [5]; 75 mg/kg IV): 13%
